Measurements: patent US4734409A, “Cephalosporin derivative, process for producing the same and pharmaceutical composition containing the same” (Kureha Kagaku Kogyo Kabushiki Kaisha, priority 1984, dated 1988)

Legend:
[1] = in vitro; assay type: in vitro ADME, Staphylococcus aureus; conditions: rat, s9
Method: As a model experiment for verifying the stability of the present compound in Example 1 in the living body, the following procedures were adopted. The same test solution of the present compound as in Example 6 was prepared by mixing 0.1 ml of the dispersion of the present compound and 0.9 ml of S-9 mix, and shaking the mixture for 20 min at 37° C. As a control, a mixture of 0.1 ml of the dispersion of the present compound and 0.9 ml of the 0.2M phosphoric acid buffer was shaken for 20 min at 37° C. As the test bacteria, Staphylococcus aureus IAM 1011 was inoculated in Mueller-Hinton culture medium, and after incubating the inoculum for 18 hours at 37° C., the number of bacteria in the medium was adjusted to 10^8 /ml and the thus adjusted, cultured medium was mixed with 50 times by volume of Mueller-Hinton culture medium. After preparing an agar plate from the mixture, a penicillin cup of 8 mm in diameter was placed on the agar plate, and 0.1 ml of the test solution prepared above was put into the cup. After leaving the thus prepared agar plate for 2 hours at 4° C., the agar plate was subjected to culture for 18 hours at 37° C. to measure the diameter of a proliferation-inhibiting circle appearing on the agar plate. From a calibration curve preliminarily prepared between the concentration of the present compound and the diameter of the proliferation-inhibiting circle, the concentration of the present compound in the test solution and the control was obtained. By using the thus obtained concentration, the rate of retaining the antibacterial activity (Rate (%)) was calculated from the following formula and is shown in Table 5. [formula] As a comparative experiment, the same precedures were carried out except for using Cefotax (a commercialized cephalosporin derivative sold by CHUGAI Pharmaceuticla Co., Ltd., which is represented by the following formula), [drawing 21] instead of the present compound produced in Example 1.

[2] = test system: Streptococcus sp.; test: Effect on the intestinal bacterial colonies: Streptococcus sp. in feces; assay type: in vivo, Streptococcus sp. (feces of female ICR-JCL mice); conditions: after administration; 100 mg/kg orally once a day, 2 days; before administration 6.8
Method: Effect of the present compound on the intestinal bacterial colonies was examined as follows.
The present compound prepared in Example 2 was orally administered to each of 5 animals of a group of female ICR-JCL mice of 6-weeks-old at a daily dosage of 100 mg/kg once a day for continuous 2 days. Feces of each of the mice were collected before and after one day of the administration, and after diluting thereof with 100 times by weight of an anaerobic diluent (an aqueous phosphoric acid buffer) the thus diluted feces were ground, and 0.1 ml of the thus ground and diluted feces was smeared on each culture medium for each bacterial species (shown in Table 1).
After incubating the thus prepared culture media at 25° C. for one to five days aerobically in the cases of Escherichia coli, Pseudomonas aeruginosa and the Streptococcus species or anaerobically in the cases of the Lactobacillus acidophilus, Lactobacillus bifidus and the Bacterioides species, the number of each bacteria proliferating on the culture medium was counted.
TATAC the same as above

SMILES | remaining at 20 min [1] | Logarithmic value of the number of bacterial cells per one gram of feces, (3) Streptococcus sp. [2]
CO/N=C(\C(=O)N[C@@H]1C(=O)N2C(C(=O)O)=C(CSc3nnc(C)s3)CS[C@H]12)c1csc(NC(=O)C(Cl)Cl)n1 [Example 1, 7β-[2-(2-dichloroacetamido-4-thiazolyl)-(Z)-2-methoxyiminoacetamido]-3-[(2-methyl-1,3,4-thiadiazol-5-yl)thiomethyl]-3-cephem-4-carboxylic acid] | 90% | –
CO/N=C(\C(=O)N[C@@H]1C(=O)N2C(C(=O)OCOC(=O)C(C)(C)C)=C(CSc3nnc(C)s3)CS[C@H]12)c1csc(NC(=O)C(Cl)Cl)n1 [Example 2] | – | 7.0 Logarithmic value of the number of bacterial cells per one gram of feces
